From patent US20260083864A1, “CONTRAST AGENTS FOR USE IN DIAGNOSTIC COMPUTED TOMOGRAPHY IMAGING” (Bayer Aktiengesellschaft, priority 2022, published 2026)

How the values were obtained:
[1] = target: T1, OATP1B3 (Homo sapiens, UniProt Q9NPD5); experiment: Uptake into stable transfected OATP1B3 HEK 293 cells; type: cell-based; details: for Uptake into OATP1B3-HEK 293 cells: 40 min incubation, relative to RC1 (Gd-EOB-DTPA); for Inhibition Rifampicine: uptake into OATP1B3-HEK 293 cells
T1 sequence (Q9NPD5 1-702): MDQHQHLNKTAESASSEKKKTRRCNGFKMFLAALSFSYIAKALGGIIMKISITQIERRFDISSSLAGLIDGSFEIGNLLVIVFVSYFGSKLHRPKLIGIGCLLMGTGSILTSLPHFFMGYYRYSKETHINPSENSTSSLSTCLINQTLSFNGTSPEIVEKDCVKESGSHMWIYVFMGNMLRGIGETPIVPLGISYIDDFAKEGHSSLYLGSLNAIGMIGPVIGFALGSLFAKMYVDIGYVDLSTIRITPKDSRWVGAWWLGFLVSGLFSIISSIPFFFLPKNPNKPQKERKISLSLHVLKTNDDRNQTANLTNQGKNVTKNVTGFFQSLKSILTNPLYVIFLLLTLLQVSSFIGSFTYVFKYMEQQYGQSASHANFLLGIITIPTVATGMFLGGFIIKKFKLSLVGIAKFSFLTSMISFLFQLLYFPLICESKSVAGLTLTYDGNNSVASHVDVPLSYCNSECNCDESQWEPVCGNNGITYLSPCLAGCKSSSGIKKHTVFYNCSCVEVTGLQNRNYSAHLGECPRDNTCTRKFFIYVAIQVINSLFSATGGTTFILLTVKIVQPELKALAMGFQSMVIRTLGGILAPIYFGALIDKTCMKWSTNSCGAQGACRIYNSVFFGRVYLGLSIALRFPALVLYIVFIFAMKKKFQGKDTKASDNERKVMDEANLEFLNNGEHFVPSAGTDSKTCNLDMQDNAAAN
Summary of the method: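 HEK 293 cells stably transfected with human OATP1B3 were incubated for 40 min with test items at 100 μM final in transport buffer, in triplicate, then washed with cold PBS. Gadoxetate (Gd-EOB-DTPA) served as the reference standard on the same plate.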

[2] = Complex stability (transmetallation) against Zn2+ in phosphate buffer; details: 72 hours, 2.5 mM Zn^2+, 26 mM phosphate buffer, 37° C., pH 7.4
Excerpt: If test compounds are instable under these conditions, transmetallation during this test would lead to the formation of the Zn^2+ complex of the test item, while Gd^3+ is released and precipitated as highly insoluble GdPO4.

[3] = Partition coefficient (log P butanol/buffer); type: physicochemical; details: 1-butanol / 50 mM Tris-HCl, pH 7.4, room temperature
[4] = Water solubility in aqueous buffer; details: aqueous buffer 10 mM Tris-HCl, pH 7.4, 20° C.
Protocol: The solid compounds were added stepwise to the buffer solution. More substance is added once all the suspended material is dissolved until an equilibrium between undissolved and dissolved substance is reached. The suspension was mixed using a shaker (Heidolph Reax 2000) and treated 5 min in an ultrasound bath (Bandelin, Sonorex Super RK255H).

[5] = system: freshly isolated rat hepatocytes; experiment: Uptake into freshly isolated rat hepatocytes; details: for Uptake rat hepatocytes: 100 μmol Gd/L, 10 min, 37° C., relative to RC1 (Gd-EOB-DTPA); for Inhibition Rifampicine: rat hepatocyte uptake, test item and Rifampicine 1:1, each 100 μM
Protocol: After incubation the adherent hepatocytes were washed once with 37° C. Hepes carbonate transport buffer (500 μL/well). The test items and RC1 were prepared from stock solutions (180 to 500 mM concentration) in Hepes carbonate transport buffer at pH 7.4 to reach a final concentration of 100 μmol Gd/L. The specific uptake of the test item or RC1 into rat hepatocytes via OATP1B1 and OATP1B3 was challenged using a known OATP1B1/1B3 inhibitor (Rifampicine, Fa. Sigma R3501, test item and inhibitor 1:1 each 100 μM final concentration). The prepared rat hepatocyte plates were incubated with test solutions (500 μL/well) at 37° C. for 10 min using a thermoshaker (Fa. Grant Bio, PHMP). Triplicates were performed for each test item. After incubating the cells were washed once with cold PBS buffer (Fa. Gibco, Dulbeccos PBS (+)). After washing the intact hepatocytes were lysed by addition of 500 μL cold 0.01% Triton-X 100 in Millipore water for 1 h. […] As a reference standard RC1 is used in the same well plate. The hepatocyte uptake of the test compound is calculated relative to RC1 (resulting in the unit % of RC1).

[6] = target: T2, OATP1B1 (Homo sapiens, UniProt Q9Y6L6); experiment: Uptake into stable transfected OATP1B1 HEK 293 cells; type: cell-based; details: for Uptake into OATP1B1-HEK 293 cells: 40 min incubation, relative to RC1 (Gd-EOB-DTPA); for Inhibition Rifampicine: uptake into OATP1B1-HEK 293 cells
T2 sequence (Q9Y6L6 1-691): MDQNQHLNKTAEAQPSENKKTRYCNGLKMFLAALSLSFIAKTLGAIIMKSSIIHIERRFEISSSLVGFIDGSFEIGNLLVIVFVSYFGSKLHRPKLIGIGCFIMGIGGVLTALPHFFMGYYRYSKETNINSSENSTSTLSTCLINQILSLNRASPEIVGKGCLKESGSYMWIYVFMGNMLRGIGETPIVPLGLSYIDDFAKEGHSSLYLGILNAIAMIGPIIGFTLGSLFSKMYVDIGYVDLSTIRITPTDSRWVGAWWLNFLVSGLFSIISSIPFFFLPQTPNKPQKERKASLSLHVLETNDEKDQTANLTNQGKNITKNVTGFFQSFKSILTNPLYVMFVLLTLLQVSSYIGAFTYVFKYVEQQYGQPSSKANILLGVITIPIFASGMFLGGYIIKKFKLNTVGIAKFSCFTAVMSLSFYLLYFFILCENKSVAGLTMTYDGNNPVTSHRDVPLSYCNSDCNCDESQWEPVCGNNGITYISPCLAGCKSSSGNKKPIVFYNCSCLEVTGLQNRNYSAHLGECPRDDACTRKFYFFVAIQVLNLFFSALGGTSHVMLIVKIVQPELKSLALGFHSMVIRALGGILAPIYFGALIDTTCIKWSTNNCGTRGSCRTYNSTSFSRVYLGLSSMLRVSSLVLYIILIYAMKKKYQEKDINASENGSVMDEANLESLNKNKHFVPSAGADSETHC
Summary of the method: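 Stably transfected OATP1B1 HEK293 cells incubated 40 min without shaking with test item at 100 µM final in transport buffer, in triplicate. Cells then washed with cold PBS; gadoxetate run on the same plate as reference.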

[7] = Relaxivity measurements at 1.41 T in water; type: physicochemical; details: 37° C., normalized to Gd
Summary of the method: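 T1 by inversion recovery and T2 by CPMG at 1.41 T (60 MHz), 37° C, relaxation delay ≥5×T1. Three Gd concentrations between 0.05 and 2 mM; relaxivities derived from measured relaxation rates in water.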

[8] = Relaxivity measurements at 1.41 T in human plasma; type: physicochemical; details: 37° C., normalized to Gd
Summary of the method: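 T1 determined by inversion recovery (8 inversion-time steps) and T2 by CPMG sequence, both with relaxation delay ≥5×T1. Each relaxivity used three Gd concentrations between 0.05 and 2 mM. Relaxivities were derived from relaxation rates measured in water and plasma.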

Structure (SMILES)	Uptake into OATP1B3-HEK 293 cells [1]	Inhibition Rifampicine [1] [% inhibition]	Transmetallation stability [2] [%]	Log P (partition coefficient butanol/buffer) [3]	Solubility [4] [mM]	Uptake rat hepatocytes [5]	Inhibition Rifampicine [5] [% inhibition]	Uptake into OATP1B1-HEK 293 cells [6]	Inhibition Rifampicine [6] [% inhibition]	r1 water [7] [L/mmol/s]	r1 human plasma [8] [L/mmol/s]
CCOCCOCCOc1ccc(CC(C(=O)O)N2CCN(CC(=O)[O-])CCN(CC(=O)[O-])CCN(CC(=O)[O-])CC2)cn1.[Gd+3] (stereo not drawn) [Example 16, gadolinium 2,2′,2″-{10-[1-carboxy-2-{6-[2-(2-ethoxyethoxy)ethoxy]pyridin-3-yl}ethyl]-1,4,7,10-tetraazacyclododecane-1,4,7-triyl}triacetate]	25 % of RC1	94	101	−1.81	>416	16 % of RC1	92	66 % of RC1	35	4.4	6.2
CCOCCOCCOc1ccc(CCCC(C(=O)O)N2CCN(CC(=O)[O-])CCN(CC(=O)[O-])CCN(CC(=O)[O-])CC2)cc1.[Gd+3] (stereo not drawn) [Example 25, gadolinium 2,2′,2″-{10-[1-carboxy-4-{4-[2-(2-ethoxyethoxy)ethoxy]phenyl}butyl]-1,4,7,10-tetraazacyclododecane-1,4,7-triyl}triacetate]	58 % of RC1	93	103	−1.00	306	82 % of RC1	96	30 % of RC1	75	4.6	7.5
CCOCCOCCOc1ccc(CCC[C@@H](C(=O)O)N2CCN(CC(=O)[O-])CCN(CC(=O)[O-])CCN(CC(=O)[O-])CC2)cc1.[Gd+3] [Example 26, gadolinium 2,2′,2″-{10-[(1S)-1-carboxy-4-{4-[2-(2-ethoxyethoxy)ethoxy]phenyl}butyl]-1,4,7,10-tetraazacyclododecane-1,4,7-triyl}triacetate]	64 % of RC1	93	99	−1.01	>62	77 % of RC1	97	386 % of RC1	73	4.5	7.5
CCOc1ccc(CCCC(C(=O)O)N2CCN(CC(=O)[O-])CCN(CC(=O)[O-])CCN(CC(=O)[O-])CC2)cc1.[Gd+3] (stereo not drawn) [Example 28, gadolinium 2,2′,2″-{10-[1-carboxy-4-(4-ethoxyphenyl)butyl]-1,4,7,10-tetraazacyclododecane-1,4,7-triyl}triacetate]	36 % of RC1	97	101	−0.71	>194	72 % of RC1	98	294 % of RC1	94	4.4	10.6
CCCCOc1ccc(CCC[C@@H](C(=O)O)N2CCN(CC(=O)[O-])CCN(CC(=O)[O-])CCN(CC(=O)[O-])CC2)cc1.[Gd+3] [Example 31, gadolinium 2,2′,2″-{10-[(1S)-4-(4-butoxyphenyl)-1-carboxybutyl]-1,4,7,10-tetraazacyclododecane-1,4,7-triyl}triacetate]	194 % of RC1	99	102	0.20	>255	87 % of RC1	94	1919 % of RC1	98	4.4	15.8
CCCCOc1cccc(CCC[C@@H](C(=O)O)N2CCN([C@@H](CO)C(=O)[O-])CCN([C@@H](CO)C(=O)[O-])CCN([C@@H](CO)C(=O)[O-])CC2)c1.[Gd+3] [Example 34, gadolinium (2S,2′S,2″S)-2,2′,2″-{10-[(1S)-4-(3-butoxyphenyl)-1-carboxybutyl]-1,4,7,10-tetraazacyclododecane-1,4,7-triyl}tris(3-hydroxypropanoate)]	140 % of RC1	98	101	0.12	>236	98 % of RC1	90	947 % of RC1	96	4.9	18.0
